Legend:
[1] = tested on: sheep; test: Intravenous and aerosolized UT-15 dose response effects on baseline hemodynamics; assay type: in vivo; conditions: baseline conditions, aerosolized, 250, 500, and 100 ng per kg per min
[2] = tested on: U44069 induced pulmonary hypertension; assay type: in vivo, sheep
Excerpt: (§1) The efficacy of benzindene prostaglandins, such as UT-15, for treating pulmonary hypertension can be assessed by determining the hemodynamics associated with pulmonary hypertension. In particular, measurements of pulmonary arterial pressure (PPA), left atrial pressure (PLA), central venous pressure (PCV), systemic arterial pressure (PSYS), heart rate (HR), and cardiac output (CO) are useful in determining the effects of benzindene prostaglandins delivered by inhalation or parenterally.
(§2) Heart rate was determined by measuring the time (seconds) required for 25 heart beats to occur (t25) as indicated by the pulsations on the blood flow meter; the beats per minute (BPM) were calculated by the following equation: […]
(§3) All pressure may be monitored by commercially available transducers, such as Model 1290A HEWLETT PACKARD™ transducer (Andover, Mass.), which is attached to VALIDYNE CD19A Carrier Dmod. Amplifiers (Northridge, Calif.). Cardiac output may be measured by a Transonic Systems T101 Ultrasonic Bloodflow Meter (Ithaca, N.Y.). The pressure and blood flow signals may be recorded on ASTROMED MT-9500 Stripchart Recorder (West Warwick, R.I.) and digitally recorded with a personal computer using Easy Data Acquisition Software (Nashville, Tenn.).
Sheep were used as the animal model of choice for these experiments for a number of reasons. First is the docile nature of sheep. They will stand quietly in metabolic cages without having to utilize tranquilizing drugs, which have the potential to complicate experimental results. Second, sheep are large enough to allow direct measurement of CO, PPA, PLA, PCV, and PSYS. Sheep are also large enough to allow direct aerosolization of substances into the lung via trachoestomy thereby preventing swallowing of drugs and thus eliminating a possible secondary route of administration of UT-15. Third, sheep can tolerate a great amount of instrumentation with little or no discomfort. Fourth, sheep have been utilized for several years as an animal model of pulmonary arterial hypertension and thus, there is a great amount of historical data with which to compare the results. The agent chosen to induce pulmonary arterial hypertension was a PGH2 analog, U44069 (9,11-dideoxy,9α,11α-epoxymethanoprostaglandin F2α). The reasons for using U44069 are that it is a very potent pulmonary vasoconstrictor, its characteristics are very similar to endogenously formed thromboxane A2, and it can be titrated to induce the desired degree of pulmonary vasoconstriction. U44069 was mixed with sterile normal saline immediately prior to being used and was protected from light by wrapping the solution with aluminum foil. The concentration of U44069 was adjusted such that a minimal flow rate of 0.8 ml per min was being infused into the sheep. This was done because more concentrated U44069 would have to be infused at very low rates and often causes “pulses” of U44069 due to the infusion characteristics of roller pumps. The U44069 pulses cause vasoconstriction “spikes” and thus would create induce a non-steady-state.
Six yearling sheep (3 males, 3 females; 21-37 kg) were fasted 18-24 hours and initially anesthetized with a short acting barbiturate (thiopental) to allow intubation of the sheep. Halothane gas anesthesia (1.5-2.5%) was then used for the surgical procedures. Via a left thoracotomy, a Transonic blood flow probe was placed around the main pulmonary artery, silastic catheters placed in the main pulmonary artery and left atrium. After approximately 7 days the sheep were reanesthetized and the left carotid artery cannulated, a Cordis Introducer Sheath inserted in the left jugular vein, and a tracheotomy made. The sheep were allowed to recover for another 3-5 days prior to experimentation. […]

[3] = tested on: sheep; test: Intravenous and aerosolized UT-15 dose response effects on baseline hemodynamics; assay type: in vivo; conditions: baseline conditions; for central venous pressure (PCV) relative to baseline / pulmonary arterial pressure (PPA) relative to baseline: any dose; for systemic arterial pressure (PSYS): any administration rate; for cardiac output (CO) relative to baseline: any delivery rate
Excerpt: as §1, §2, §3
Inhalation solutions were prepared by combining 1.25 grams of Sodium Citrate (Hydrous), 0.125 Citric Acid (Anhydrous), 0.05 grams of Sodium Hydroxide (NF/BP), 0.125 grams of UT-15, and approximately 250 ml of Water for Injection according to the following steps.
Working solution was made by adding sterile saline to dilute the UT15 stock solution or placebo to the desired amount (depending on dose desired, weight of sheep, and duration of aerosolizing). This solution was then added to the nebulizer in volumes not exceeding 5 ml until entire amount was used.
Six yearling sheep (3 males, 3 females; 21-37 kg) were fasted 18-24 hours and initially anesthetized with a short acting barbiturate (thiopental) to allow intubation of the sheep. Halothane gas anesthesia (1.5-2.5%) was then used for the surgical procedures. Via a left thoracotomy, a Transonic blood flow probe was placed around the main pulmonary artery, silastic catheters placed in the main pulmonary artery and left atrium. After approximately 7 days the sheep were reanesthetized and the left carotid artery cannulated, a Cordis Introducer Sheath inserted in the left jugular vein, and a tracheotomy made. The sheep were allowed to recover for another 3-5 days prior to experimentation. These sheep were used to allow measurement of pulmonary arterial pressure (PPA), left atrial pressure (PLA), central venous pressure (PCV), systemic arterial pressure (PSYS), heart rate (HR), and cardiac output (CO) after baseline measurements were made for a minimum of 30 minutes.
Two separate experiments were conducted to determine the dose response effects of intravenously infused UT-15 on baseline hemodynamics and aerosolized UT-15 on baseline hemodynamics. For the infusion experimental protocol, after a 30 minute baseline was established, UT-15 was infused intravenously at 3 rates (250, 500 and 1000 ng per kg per min). In three sheep, the infusion rates lasted for 30 minutes each, and for the other three sheep, the infusions were for 60 minutes each.
The aerosolized UT-15 protocol involved establishing a 30 minute baseline, then administering aerosolized UT-15 via a tracheostromy at rates of […] per kg of body weight per min and at an aerosolization rate of 0.28 ml/min. Again, three sheep were aerosolized for 30 minutes and the other three sheep were aerosolized for 60 minutes.

[4] = tested on: blood platelets; conditions: cited from earlier work
[5] = U44069 iv infusion alone, 1 ng per kg per min

## CCCCC[C@H](O)CC[C@@H]1[C@H]2Cc3cccc(OCC(=O)O)c3C[C@H]2C[C@H]1O [UT-15, 9-deoxy-2′,9-alpha-methano-3-oxa-4,5,6-trinor-3,7-(1′,3′-interphenylene)-13,14-dihydro-prostaglandin F1]
[1]
  pulmonary vascular driving pressure (PPA minus PLA) versus baseline: significant
[2]; aerosolized UT-15 compared to intravascularly administered UT-15
  potency and efficacy in attenuating chemically induced pulmonary hypertension (increase in PVR): greater potency and efficacy
[2]; during iv U44069, aerosol UT-15, only 500 ng per kg per min
  central venous pressure: different from the corresponding intravenous UT-15 infusion value
[2]; during iv U44069, aerosolized UT-15, 500 and 1000 ng per kg per min
  pulmonary arterial pressure (PPA): back to normal values
[2]; during iv U44069, aerosolized UT-15, any of the three delivery rates
  pulmonary vascular resistance (PVR) relative to baseline PVR: no significant difference
[2]; during iv U44069, intravascular UT-15
  pulmonary arterial pressure (PPA) versus U44069 value: decrease significantly
[2]; during iv U44069, intravenously infused UT-15, 500 and 1000 ng per kg per min
  pulmonary vascular resistance (PVR), U44069-induced increase: significantly attenuated
[2]; during iv U44069, intravenously infused UT-15, all three delivery rates
  left atrial pressure versus U44069 value: significant decrease
[2]; in vivo
  peripheral effects (heart rate, cardiac output): no apparent peripheral effects
[3]; aerosol
  central venous pressure (PCV) relative to baseline: no statistical difference
[3]; aerosolized, all 3 delivery rates
  pulmonary vascular resistance (PVR): significant decrease
[3]; aerosolized
  systemic arterial pressure (PSYS): no significant effect
  cardiac output (CO) relative to baseline: no significant changes
[3]; aerosolized, not statistically different
  pulmonary arterial pressure (PPA) relative to baseline: general trend for PPA to decrease
[3]; aerosolized, mean values increased
  left atrial pressure (PLA) relative to baseline: neither intravenous nor aerosolized UT-15 caused PLA to significantly change
[3]; intravenous
  pulmonary vascular resistance (PVR): no significant effect
  systemic arterial pressure (PSYS): no significant effect
  cardiac output (CO) relative to baseline: no significant changes
  central venous pressure (PCV) relative to baseline: no statistical difference
  pulmonary arterial pressure (PPA) relative to baseline: same effects
[3]; intravenous, mean values decreased
  left atrial pressure (PLA) relative to baseline: neither intravenous nor aerosolized UT-15 caused PLA to significantly change
[4]
  anti-aggregatory action on blood platelets: potent anti-aggregatory action

## CCCCC[C@H](O)/C=C/C1C2COC(C2)C1C/C=C\CCCC(=O)O (stereo partly drawn) [U44069, 9,11-dideoxy,9α,11α-epoxymethanoprostaglandin F2α, reference compound]
[2]; [5]
  left atrial pressure: did not alter left atrial pressure significantly
  pulmonary arterial pressure (PPA) relative to baseline: significantly increased
  pulmonary vascular resistance (PVR): dramatic increase

— US6756033B2, “Method for delivering benzindene prostaglandins by inhalation” (United Therapeutics Corporation, priority 1999, dated 2004)
